This note sets out measurements from ChEMBL document CHEMBL5260859, “Discovery and structure-activity relationship study of 2-piperazinyl-benzothiazole derivatives as potent and selective PPARδ agonists” (Bioorg Med Chem, 2023).

Assay [1] concerns Mus musculus. The experiment in a line: Antihypercholesterolemic activity against hApoB100/hCETP-dTg hypercholesterolemic mouse model assessed as serum HDL-C level at 3 mg/kg, po administered once daily for 8 days. In kind it is functional. The conditions noted are these: time 8 day.
Assay [2] relates to Mus musculus. The experiment in a line: Antihypercholesterolemic activity against hApoB100/hCETP-dTg hypercholesterolemic mouse model assessed as serum non-HDL-C level at 3 mg/kg, po administered once daily for 8 days. Format: functional. Conditions: time 8 day.
For assay [3], the target named is T1, Peroxisome proliferator-activated receptor delta (Mus musculus) (UniProt P35396).
T1 sequence (whole entry): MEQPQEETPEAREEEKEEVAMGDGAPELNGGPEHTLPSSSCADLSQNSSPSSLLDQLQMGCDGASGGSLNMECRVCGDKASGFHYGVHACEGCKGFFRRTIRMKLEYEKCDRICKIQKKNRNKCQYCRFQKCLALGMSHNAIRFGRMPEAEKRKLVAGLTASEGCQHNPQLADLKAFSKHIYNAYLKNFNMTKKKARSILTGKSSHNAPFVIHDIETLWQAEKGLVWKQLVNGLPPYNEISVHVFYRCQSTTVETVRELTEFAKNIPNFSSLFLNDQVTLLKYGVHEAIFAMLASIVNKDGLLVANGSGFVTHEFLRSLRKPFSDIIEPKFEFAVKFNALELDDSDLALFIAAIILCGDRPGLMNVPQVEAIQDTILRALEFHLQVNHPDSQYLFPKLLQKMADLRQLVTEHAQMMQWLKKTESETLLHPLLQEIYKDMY
The experiment in a line: Agonist activity at Gal4-fused mouse PPAR-delta ligand binding domain expressed in CHO-K1 cells assessed as receptor transactivation incubated for 24 to 48 hrs by luciferase reporter gene assay relative to control. Format: cell-based. The conditions noted are these: time lower 24.0 hrs, time upper […]. For orientation: Reporter assays use an easily measured gene product as a stand-in for the process of interest.

The target of assay [4] is T2, Peroxisome proliferator-activated receptor alpha (Mus musculus, UniProt P23204).
T2 sequence (P23204 whole entry): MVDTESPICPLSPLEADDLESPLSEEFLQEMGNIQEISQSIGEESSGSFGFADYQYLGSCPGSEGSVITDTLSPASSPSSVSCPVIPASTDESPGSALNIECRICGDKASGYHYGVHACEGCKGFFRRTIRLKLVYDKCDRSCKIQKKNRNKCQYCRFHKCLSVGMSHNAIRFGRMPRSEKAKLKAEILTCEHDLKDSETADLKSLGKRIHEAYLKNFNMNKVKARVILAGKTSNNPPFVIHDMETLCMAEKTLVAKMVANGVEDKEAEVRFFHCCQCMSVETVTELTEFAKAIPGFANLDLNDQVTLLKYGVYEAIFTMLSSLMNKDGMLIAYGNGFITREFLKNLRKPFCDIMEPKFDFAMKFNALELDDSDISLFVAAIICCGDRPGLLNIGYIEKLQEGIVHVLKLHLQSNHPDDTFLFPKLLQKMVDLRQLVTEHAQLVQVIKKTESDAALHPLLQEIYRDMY
The experiment in a line: Agonist activity at Gal4-fused mouse PPAR-alpha ligand binding domain expressed in CHO-K1 cells assessed as receptor transactivation incubated for 24 to 48 hrs by luciferase reporter gene assay. In kind it is cell-based.

The target of assay [5] is T3, Peroxisome proliferator-activated receptor alpha (Mus musculus) (UniProt P23204).
T3 sequence (whole entry): T2 sequence (P23204 whole entry)
The experiment in a line: Agonist activity at Gal4-fused mouse PPAR-alpha ligand binding domain expressed in CHO-K1 cells assessed as receptor transactivation incubated for 24 to 48 hrs by luciferase reporter gene assay relative to control. In kind it is cell-based. Conditions: time lower 24.0 hrs, time upper […].

The target of assay [6] is T4, Peroxisome proliferator-activated receptor gamma (Mus musculus, UniProt P37238).
T4 sequence (P37238 whole entry): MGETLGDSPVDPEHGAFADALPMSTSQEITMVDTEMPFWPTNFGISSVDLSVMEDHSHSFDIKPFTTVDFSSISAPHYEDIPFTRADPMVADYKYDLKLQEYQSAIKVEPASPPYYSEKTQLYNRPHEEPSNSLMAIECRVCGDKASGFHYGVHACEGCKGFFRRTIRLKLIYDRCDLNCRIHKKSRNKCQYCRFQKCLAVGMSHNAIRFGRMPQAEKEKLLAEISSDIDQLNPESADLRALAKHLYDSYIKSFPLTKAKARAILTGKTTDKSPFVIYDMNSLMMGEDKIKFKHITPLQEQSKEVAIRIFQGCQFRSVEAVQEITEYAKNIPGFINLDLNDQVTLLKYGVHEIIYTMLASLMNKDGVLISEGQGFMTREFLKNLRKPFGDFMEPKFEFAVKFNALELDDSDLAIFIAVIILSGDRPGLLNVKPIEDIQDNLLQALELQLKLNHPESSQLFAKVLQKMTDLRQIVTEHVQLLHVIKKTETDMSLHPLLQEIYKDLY
The assay can be described thus: Agonist activity at Gal4-fused mouse PPAR-gamma ligand binding domain expressed in CHO-K1 cells assessed as receptor transactivation incubated for 24 to 48 hrs by luciferase reporter gene assay. Format: cell-based.

The target of assay [7] is T5, Peroxisome proliferator-activated receptor delta (Homo sapiens, UniProt Q03181).
T5 sequence (Q03181 whole entry): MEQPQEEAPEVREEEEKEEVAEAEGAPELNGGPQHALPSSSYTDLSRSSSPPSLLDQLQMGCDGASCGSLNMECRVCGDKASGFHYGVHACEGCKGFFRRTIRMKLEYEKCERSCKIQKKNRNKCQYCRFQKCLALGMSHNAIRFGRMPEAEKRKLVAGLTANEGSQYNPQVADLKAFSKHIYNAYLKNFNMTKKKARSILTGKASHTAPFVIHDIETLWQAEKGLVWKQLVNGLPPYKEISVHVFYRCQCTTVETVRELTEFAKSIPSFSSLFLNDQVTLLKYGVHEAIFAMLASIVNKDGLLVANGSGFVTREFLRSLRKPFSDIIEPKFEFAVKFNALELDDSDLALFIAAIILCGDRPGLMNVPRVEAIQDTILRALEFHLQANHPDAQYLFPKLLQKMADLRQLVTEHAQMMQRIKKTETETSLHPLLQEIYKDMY
The assay can be described thus: Agonist activity at Gal4-fused human PPAR-delta ligand binding domain expressed in CHO-K1 cells assessed as receptor transactivation incubated for 24 to 48 hrs by luciferase reporter gene assay. Format: cell-based.

Assay [8] deals with T6, Peroxisome proliferator-activated receptor delta (Homo sapiens) (UniProt Q03181).
T6 sequence (whole entry): T5 sequence (Q03181 whole entry)
The assay can be described thus: Agonist activity at Gal4-fused human PPAR-delta ligand binding domain expressed in CHO-K1 cells assessed as receptor transactivation incubated for 24 to 48 hrs by luciferase reporter gene assay relative to control. In kind it is cell-based. The conditions noted are these: time lower 24.0 hrs, time upper […].

Assay [9] concerns the target T7, Peroxisome proliferator-activated receptor delta (Mus musculus, UniProt P35396).
T7 sequence (P35396 whole entry): T1 sequence (whole entry)
The experiment in a line: Agonist activity at Gal4-fused mouse PPAR-delta ligand binding domain expressed in CHO-K1 cells assessed as receptor transactivation incubated for 24 to 48 hrs by luciferase reporter gene assay. In kind it is cell-based.

The target in assay [10] is T8, Peroxisome proliferator-activated receptor alpha (Homo sapiens) (UniProt Q07869).
T8 sequence (whole entry): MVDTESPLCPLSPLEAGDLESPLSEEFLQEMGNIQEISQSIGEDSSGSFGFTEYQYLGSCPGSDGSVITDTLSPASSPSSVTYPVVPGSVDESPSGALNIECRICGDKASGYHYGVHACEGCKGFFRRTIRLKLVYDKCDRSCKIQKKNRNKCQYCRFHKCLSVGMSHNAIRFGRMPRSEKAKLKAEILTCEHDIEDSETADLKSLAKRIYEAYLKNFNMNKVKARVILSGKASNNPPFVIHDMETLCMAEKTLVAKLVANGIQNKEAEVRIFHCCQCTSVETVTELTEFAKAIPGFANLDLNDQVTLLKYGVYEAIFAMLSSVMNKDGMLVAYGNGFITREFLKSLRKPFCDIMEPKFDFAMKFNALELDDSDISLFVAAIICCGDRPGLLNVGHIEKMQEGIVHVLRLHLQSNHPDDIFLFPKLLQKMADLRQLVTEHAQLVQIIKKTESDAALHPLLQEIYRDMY
The assay can be described thus: Agonist activity at Gal4-fused human PPAR-alpha ligand binding domain expressed in CHO-K1 cells assessed as receptor transactivation incubated for 24 to 48 hrs by luciferase reporter gene assay relative to control. In kind it is cell-based. Conditions: time lower 24.0 hrs, time upper […].

In the case of `Cc1cc(SCc2sc(-c3ccc(C(F)(F)F)cc3)nc2C)ccc1OCC(=O)O` [GW501516], the values for the Activity in the assay on Mus musculus [1] and with Mus musculus [2] were 141% and 67%, respectively.

What is called EC50 is the concentration giving half of the maximal effect. Consider `Cc1cc(CC(=O)O)cc(CN2CCN(c3nc4ccc(C(F)(F)F)cc4s3)CC2)c1`, for which the results for the Emax in [3] and in assay [5] were 19% and 6.6%, respectively. Also, the results for the EC50 in [4] and in assay [6] were 3000 nM and 3300 nM, respectively.

On to `C[C@@H]1CN(c2nc3ccc(Cl)cc3s2)CCN1CCOc1cc(CC(=O)O)ccc1Cl`, for which the figures for the 50% effective concentration (EC50) in assay [7], in assay [9] and in [4] were 16 nM, 47 nM and 3200 nM, respectively. In addition, the results for the Emax in [8], in [3] and in assay [5] were 19.8%, 28.3% and 21%, respectively.

Consider `C[C@H]1CN(c2nc3ccc(Cl)cc3s2)CCN1CCOc1cc(CC(=O)O)ccc1Cl`, for which the concentration giving a half-maximal response (EC50) in assay [7] turned out to be 5 nM; in [9] it was 12 nM; in assay [4], 7100 nM. Moreover, the figures for the Emax in [8], in assay [3] and in assay [5] were 15.5%, 23.2% and 8.3%, respectively.

In the case of `Cc1ccc(CC(=O)O)cc1OCCN1CCN(c2nc3ccc(Cl)cc3s2)CC1`, the EC50 worked out at 33 nM in [7] and 110 nM in [9]. The values for the Emax in [8] and in assay [3] were 14.4% and 25.3%, respectively.

For the compound `Cc1cc(CC(=O)O)cc(CN2CCN(c3nc4ccc(C(F)(F)F)cc4s3)[C@H](C(C)C)C2)c1`, the figures for the 50% effective concentration (EC50) in assay [7], in assay [9] and in assay [6] were 3.7 nM, 7.5 nM and 230 nM, respectively. In addition, the Emax in assay [8] was found to be 13.1%; in assay [3], 14.6%; in [5] it was 1.3%.

Turning to `Cc1ccc(CC(=O)O)cc1OCCN1CCN(c2nc3ccc(Cl)cc3s2)C[C@@H]1C`, the results for the EC50 in [9], in assay [4] and in [6] were 25 nM, 4900 nM and 500 nM, respectively. Besides, the values for the Emax in assay [3] and in assay [5] were 21.7% and 6.9%, respectively.

Turning to `CC[C@@H]1CN(Cc2cc(C)cc(CC(=O)O)c2)CCN1c1nc2ccc(C(F)(F)F)cc2s1`, the Emax was 33.1% in [3] and 2.8% in assay [5]. In addition, the figures for the concentration for a half-maximal effect (EC50) in assay [4] and in assay [6] were 8500 nM and 40 nM, respectively.

With `Cc1cc(CC(=O)O)cc(CN2CCN(c3nc4ccc(C(F)(F)F)cc4s3)C[C@H]2C)c1`, the EC50 in assay [7] was found to be 9.9 nM; in assay [9] it was 34 nM; in assay [4] it was 8000 nM. Also, the results for the Emax in assay [8], in [3] and in assay [5] were 15.5%, 22.1% and 19%, respectively.

Turning to `Cc1cc(CC(=O)O)cc(CN2CCN(c3nc4ccc(C(F)(F)F)cc4s3)C[C@@H]2C)c1`, the EC50 stood at 6.9 nM in [7] and 28 nM in assay [9]. In addition, the Emax worked out at 19.5% in [8], 22.1% in assay [3] and 1.1% in assay [5].

Regarding `CC[C@H]1CN(Cc2cc(C)cc(CC(=O)O)c2)CCN1c1nc2ccc(C(F)(F)F)cc2s1`, the values for the Emax in assay [3] and in assay [5] were 30.8% and 9.1%, respectively. The results for the EC50 in assay [4] and in [6] were 3800 nM and 670 nM, respectively.

`C[C@@H]1CN(CCOc2cc(CC(=O)O)ccc2Cl)CCN1c1nc2ccc(Cl)cc2s1`: the EC50 in assay [7] stood at 7.9 nM; in assay [9], 46 nM; in assay [4], 3900 nM; in assay [6], 4.1 nM. Besides, the Emax came out at 21.9% in assay [8], 27.6% in assay [3] and 12.5% in [5].

In the case of `C[C@H]1CN(CCOc2cc(CC(=O)O)ccc2Cl)CCN1c1nc2ccc(Cl)cc2s1`, the EC50 turned out to be 17 nM in [7], 27 nM in assay [9], 13000 nM in assay [4] and 150 nM in assay [6]. In addition, the Emax was determined as 23.9% in [8], 27.9% in assay [3] and 16.7% in assay [5].

In the case of `CC[C@H]1CN(c2nc3ccc(Cl)cc3s2)CCC1CCOc1cc(CC(=O)O)ccc1Cl` (some centres not stated), the concentration giving a half-maximal response (EC50) in assay [9] stood at 5.8 nM; in [4], 3400 nM; in [6] it was 390 nM. Also, the Emax in assay [3] was found to be 31.3%; in assay [5] it was 6.1%.

In the case of `CC1CN(c2nc3ccc(Cl)cc3s2)CCC1CCOc1cc(CC(=O)O)ccc1Cl` (configuration not stated), the Emax in assay [10] is 3%; in assay [3], 28.7%; in [5] it was 14.2%. Further, the EC50 in assay [9] is 47 nM; in [4], 3600 nM; in [6] it was 1000 nM.
